Patent US20180008592A1, “TREATMENT OF UREMIC PRURITUS” (TREVI THERAPEUTICS, INC., priority 2016, published 2018)

Experiments:
Format in all cases: in vivo, human
[1] = test system: renally impaired patients on hemodialysis with moderate or severe uremic pruritus; assay: Same trial: Itch MOS (itch-related sleep disruption); settings: for patients with sleep latency (time to fall asleep) >30 minutes, Itch MOS: last treatment week (Week 8)
Text: FIG. 9 provides 12 questions and a numerical scale (range, 1-6; anchors at 1 “All of the time”; 2 “Most of the time”; 3 “A good bit of the time”; 4 “Some of the time”; 5 “A little of the time”; and 6 “None of the time”) used in assessing itching-related sleep disruption (Itch Medical Outcomes Study (MOS) Questions).
(§1) The primary endpoint was the change from Baseline to the Evaluation Period (Study weeks 7 and 8) in the modified intent-to-treat population. Quality of life-related secondary endpoints included change from Day 1 to the Evaluation Period in itching-related quality of life (using the Skindex-10 (FIG. 8)) and itching-related sleep disruption (using the Itch Medical Outcomes Study [Itch MOS] (FIG. 9), SLP-9). The Hospital Anxiety and Depression Score (HADS) used as a general measure of anxiety and depression. All patient-reported outcomes measures were selected based on their prior validation in uremic pruritus patients specifically or in the dialysis population more generally.
(§2) The primary and quality of life secondary endpoint analyses used a mixed model repeated measures ANCOVA with the main effects of treatment and site and baseline worst itch NRS score as the covariate. The model included time (i.e. Visit) as a factor variable and treatment*time (with placebo as the reference category) with an unstructured covariance structure for repeated measures. Data from all post-baseline visits were used to fit the model. For the primary endpoint, the baseline value was defined as the mean of worst itch daytime and nighttime NRS scores used for satisfying the protocol inclusion criterion #5 (mean worst itching NRS≧4.5 based on a total of 3 daytime and 3 nighttime measurements from 3 dialysis visits). For the secondary endpoints, the baseline value was based on a measurement taken on Study Day 1, prior to randomization. A pre-specified step-down procedure was used. The first comparison was of nalbuphine 120 mg BID dose vs. placebo. If the first comparison was significant at the p<0.05 level, then the comparison between the nalbuphine 60 mg BID dose vs. placebo would be conducted. Patients with a 15% or greater response in worst itch NRS were analyzed using a Cochran-Mantel-Haenszel (CMH) test. Analysis of the Itch MOS utilized the SLP-9 scoring algorithm.
(§3) In the first 2 weeks of treatment, patients were blindly force-titrated to their assigned target dose, with the patients in the active arms reaching a dose of 60 mg BID (NAL 60) after the first week and, for those in the high dose group, to 120 mg BID (NAL 120) after the second week. Study drug was administered in blister cards containing the labeled morning and evening doses for each day of the week. Subsequently, patients continued stable doses of the study drug for an additional 6 weeks and were then washed off study drug and followed for another 2 weeks for itching intensity and safety. No down-titration was permitted during the study, although patients who missed 6 or more consecutive doses during the Stable Dose Period (Weeks 3-8) could, with the Medical Monitor's approval, re-start treatment with blinded re-titration of just the morning or evening dose for 3 days before returning to the original dose. Patients were allowed to remain on their background antipruritic medications such as antihistamines and the use of these medications and indication for treatment was collected.

[2] = test system: renally impaired patients on hemodialysis with moderate or severe uremic pruritus; assay: Same trial: Skindex-10 (itch-related quality of life); settings: for Skindex-10 Disease Domain (bothersomeness of itching) [0-18], change from Baseline to the Evaluation Period, mean (SD) / Skindex-10 Mood/emotional distress domain (0-24), change from Baseline to the Evaluation Period, mean (SD) / Skindex-10 Social Functioning Domain [0-18], change from Baseline to the Evaluation Period, mean (SD) / Skindex-10 Total Score [0 (best) to 60 (worst)], change from Baseline to the Evaluation Period, mean (SD): 60 mg BID; for Skindex-10 Mood/emotional distress domain (0-24), change from Baseline to the Evaluation Period, mean / Skindex-10 Social Functioning Domain [0-18], change from Baseline to the Evaluation Period, mean / Skindex-10 Total Score [0 (best) to 60 (worst)], change from Baseline to the Evaluation Period, mean / Skindex-10 Disease Domain (bothersomeness of itching) [0-18], change from Baseline to the Evaluation Period, mean: 120 mg BID
Text: FIG. 8 provides a numerical scale (range, 0-6; anchors at 0 “never bothered” and 6 “always bothered”) (top) used for answering 10 questions used in the assessment of itching-related quality of life (bottom) (Skindex-10).
as §1, §2, §3

[3] = test system: renally impaired patients on hemodialysis with moderate or severe uremic pruritus; assay: Randomized double-blind placebo-controlled trial: Worst Itching Intensity Numerical Rating Scale (NRS); settings: for Change from Baseline to the Evaluation Period NRS (mean SD): weeks 7 and 8, scale 0-10; for patients with ≧15% change from baseline to the Evaluation Period in the NRS: p=NS; for NRS, Change from Baseline to the Evaluation Period, mean (SD): severe pruritus subgroup (Baseline NRS ≧ 7), post-hoc
Experimental: This clinical study was a parallel, double-blind, placebo-controlled trial in which renally impaired patients on hemodialysis with moderate or severe uremic pruritus were randomized in a 1:1:1 ratio to nalbuphine ER tablets to a target dose of 120 mg BID or 60 mg BID, or matching placebo tablets BID. Medications taken for treatment of pruritus (“antipruritic medications”) were not prohibited, but their use was recorded throughout the study. Use of skin emollients was also not restricted. A placebo comparator was chosen because there are no approved treatments for uremic pruritus in the United States or Europe or an established standard of care that could serve as an active control.
The primary objectives were to evaluate the effects on itching intensity using a Worst Itching Intensity Numerical Rating Scale (NRS, 0 [no itching]-10 [worst possible itching]) (FIG. 7) as well as safety and tolerability. The study was conducted at 46 United States investigative sites and 6 investigative sites in Romania and Poland. The Sponsor oversaw the conduct of the trial and an independent unblinded Data Safety Monitoring Board reviewed safety data approximately once a month during the conduct of the trial.
To be eligible, patients had to have been on hemodialysis for 3 months, have a Patient Assessed Disease Severity (PADS) category of “B” or “C”, and a mean of 6 Worst Itching Numerical Rating Scale Scores during the week prior to randomization ≧4.5 on an 11-point scale (0, “no itching” to 10, “worst possible itching”) with at least 2 scores ≧5.0.
as §1
Patients were analyzed by group to which they were randomized.
as §2
In the first 2 weeks of treatment, patients were blindly force-titrated to their assigned target dose, with the patients in the active arms reaching a dose of 60 mg BID (NAL 60) after the first week and, for those in the high dose group, to 120 mg BID (NAL 120) after the second week. Study drug was administered in blister cards containing the labeled morning and evening doses for each day of the week. […]

[4] = severe subgroup (Baseline NRS ≧ 7), N = 61
[5] = severe subgroup (Baseline NRS ≧ 7), N = 63

## Cl.Oc1ccc2c3c1O[C@H]1[C@@H](O)CC[C@@]4(O)[C@@H](C2)N(CC2CCC2)CC[C@]314 [Nalbuphine, 17-(cyclobutylmethyl)-4,5α-epoxymorphinian-3,6α, 14-triol, hydrochloride]
[1]; 60 mg BID, N = 128
  Itch MOS [0 (best) to 60 (worst)], change from Baseline to the Evaluation Period, mean (SD): −13.9 (17.6)
[1]; 60 mg BID, 68.7% at baseline
  patients with sleep latency (time to fall asleep) >30 minutes, Itch MOS: 35.9%
[1]; 120 mg BID, N = 120, p < 0.1
  Itch MOS [0 (best) to 60 (worst)], change from Baseline to the Evaluation Period, mean: −16.0
[1]; 120 mg BID, 67.5% at baseline
  patients with sleep latency (time to fall asleep) >30 minutes, Itch MOS: 25.0%
[1]; severe subgroup (Baseline NRS ≧ 7), 60 mg BID, N = 61
  Itch MOS (Itch-Related Sleep Disruption) [0 (best) to 60 (worst)], change from Baseline to the Evaluation Period, mean (SD): −15.0 (17.7)
[1]; severe subgroup (Baseline NRS ≧ 7), 120 mg BID, N = 63, p < 0.01
  Itch MOS (Itch-Related Sleep Disruption) [0 (best) to 60 (worst)], change from Baseline to the Evaluation Period, mean: −21.6
[1]; severe subgroup (Baseline NRS ≧7.0), 120 mg BID, p=0.007
  Sleep disruption due to itching: improved significantly relative to placebo
[2]; N = 128
  Skindex-10 Disease Domain (bothersomeness of itching) [0-18], change from Baseline to the Evaluation Period, mean (SD): −5.3 (4.9)
  Skindex-10 Mood/emotional distress domain (0-24), change from Baseline to the Evaluation Period, mean (SD): −4.4 (5.0)
  Skindex-10 Social Functioning Domain [0-18], change from Baseline to the Evaluation Period, mean (SD): −4.2 (6.7)
  Skindex-10 Total Score [0 (best) to 60 (worst)], change from Baseline to the Evaluation Period, mean (SD): −13.8 (14.6)
[2]; N = 120
  Skindex-10 Mood/emotional distress domain (0-24), change from Baseline to the Evaluation Period, mean: −5.2
  Skindex-10 Social Functioning Domain [0-18], change from Baseline to the Evaluation Period, mean: −5.4
  Skindex-10 Total Score [0 (best) to 60 (worst)], change from Baseline to the Evaluation Period, mean: −17.0
[2]; N = 120, p < 0.1
  Skindex-10 Disease Domain (bothersomeness of itching) [0-18], change from Baseline to the Evaluation Period, mean: −6.4
[2]; [4]
  Skindex-10 Disease Domain (bothersomeness of itching) [0-18], change from Baseline to the Evaluation Period, mean (SD): −6.2 (5.1)
  Skindex-10 Mood/emotional distress domain (0-24), change from Baseline to the Evaluation Period, mean (SD): −5.1 (5.0)
  Skindex-10 Social Functioning Domain [0-18], change from Baseline to the Evaluation Period, mean (SD): −5.1 (7.04)
  Skindex-10 Total Score [0 (best) to 60 (worst)], change from Baseline to the Evaluation Period, mean (SD): −16.4 (15.1)
[2]; [5]
  Skindex-10 Social Functioning Domain [0-18], change from Baseline to the Evaluation Period, mean: −7.1
  Skindex-10 Total Score [0 (best) to 60 (worst)], change from Baseline to the Evaluation Period, mean: −20.5
[2]; severe subgroup (Baseline NRS ≧ 7), N = 63, p < 0.05
  Skindex-10 Disease Domain (bothersomeness of itching) [0-18], change from Baseline to the Evaluation Period, mean: −7.1
[2]; severe subgroup (Baseline NRS ≧ 7), N = 63, p < 0.1
  Skindex-10 Mood/emotional distress domain (0-24), change from Baseline to the Evaluation Period, mean: −6.4
[3]; 60 mg BID
  difference vs. placebo in worst itching NRS (primary endpoint): no significant difference
  patients with ≧15% change from baseline to the Evaluation Period in the NRS: 80.5%
[3]; 60 mg BID ER tablets, N = 128, baseline NRS 6.9 (1.4)
  Change from Baseline to the Evaluation Period NRS (mean SD): −3.1 (2.4)
[3]; 60 mg BID, 95% CI (−0.84, 0.37), p = 0.441
  Difference in the Change from Baseline to the Evaluation Period (LSMEAN, SE) vs. placebo: −0.24 (0.31)
[3]; 120 mg BID ER tablets, N = 120, baseline NRS 6.9 (1.5), hydrochloride
  Change from Baseline to the Evaluation Period NRS (mean SD): −3.5 (2.4)
[3]; 120 mg BID, 8-week treatment period
  development of tolerance to the effect on itch: no apparent development of tolerance
[3]; 120 mg BID, 95% CI (−1.34, −0.13), p = 0.017
  Difference in the Change from Baseline to the Evaluation Period (LSMEAN, SE) vs. placebo: −0.73 (0.31)
[3]; 120 mg BID, moderate and severe uremic pruritus
  reduction in itching intensity: 49%
[3]; 120 mg BID
  patients with ≧15% change from baseline to the Evaluation Period in the NRS: 84.5%
[3]; 60 mg BID, N = 61, baseline 8.0 (0.9)
  NRS, Change from Baseline to the Evaluation Period, mean (SD): −3.4 (2.6)
[3]; 120 mg BID, N = 63, baseline 8.2 (0.8), p < 0.01
  NRS, Change from Baseline to the Evaluation Period, mean (SD): −4.5
[3]; severe subgroup (Baseline NRS ≧7.0), 60 mg BID
  improvement of itching intensity and Itch MOS compared with placebo: Neither itching intensity nor Itch MOS improved significantly
[3]; severe subgroup (Baseline NRS ≧7.0), 120 mg BID
  decrease of mean itching intensity: 55%
[3]; severe subgroup (Baseline NRS ≧7.0, n=179), 120 mg BID, baseline 8.2 (0.8), p=0.007 vs. placebo
  absolute reduction of mean itching intensity (NRS): 4.5 (2.5)
